This note sets out measurements from patent US20230406885A1, “CYCLIC PEPTIDES FOR TRAPPING INTERLEUKIN-1 BETA” (MERCK SHARP & DOHME LLC, priority 2022, published 2023).

Where a SMILES comes first, the peptide text is derived from it. [ ]: non-standard residue; d: D form. Bip(4'-COOH) = N[C@@H](Cc1ccc(-c2ccc(C(=O)O)cc2)cc1)C(=O)O; 1Nal(3S-Me) = C[C@@H](c1cccc2ccccc12)[C@H](N)C(=O)O; Ala(indazol-1-yl) = N[C@@H](Cn1ncc2ccccc21)C(=O)O; Ala(indolin-1-yl) = N[C@@H](CN1CCc2ccccc21)C(=O)O; Phe(4-COOH) = N[C@@H](Cc1ccc(C(=O)O)cc1)C(=O)O; h3Pal(5-CN) = N#Cc1cncc(CC[C@H](N)C(=O)O)c1; Pro(4R-NH2) = N[C@H]1CN[C@H](C(=O)O)C1; 1Nal = N[C@@H](Cc1cccc2ccccc12)C(=O)O; Ala(4-THP) = N[C@@H](CC1CCOCC1)C(=O)O; hTyr = N[C@@H](CCc1ccc(O)cc1)C(=O)O; 4Pal = N[C@@H](Cc1ccncc1)C(=O)O; Orn = NCCC[C@H](N)C(=O)O; dNMeA = CN[C@H](C)C(=O)O; Dab = NCC[C@H](N)C(=O)O; Dap = NC[C@H](N)C(=O)O; Aib = CC(C)(N)C(=O)O

In the test the target is T1, Recombinant human IL-1β (Homo sapiens, UniProt P01584).
T1 construct: purchased BioLegend 579404
T1 sequence (P01584 117-269): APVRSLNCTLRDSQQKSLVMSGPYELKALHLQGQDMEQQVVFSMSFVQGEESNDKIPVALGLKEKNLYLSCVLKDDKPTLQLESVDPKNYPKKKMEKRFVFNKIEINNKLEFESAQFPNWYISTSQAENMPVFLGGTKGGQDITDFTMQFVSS
The test is described as follows: IL-6 assay in MRC5 cells: inhibition of IL-1β induced IL-6 secretion (AlphaLISA). The format is cell-based. The following applies: inhibition of IL-1β induced IL-6 secretion in MRC5 cells; IL-1β pre-incubated 1 hour with compound; read-out: MRC5 IC50. How it is done:
Procedure for IL-6 Assay in MRC5 Cells
The inhibition of IL-1β induced IL-6 secretion was evaluated in MRC5 cells. Recombinant human IL-1β (BioLegend 579404) at 2×EC80 concentration was prepared in seeding medium, EMEM (ATCC 30-2003) with 0.025% BSA (Sigma A9576), 1× penicillin/streptomycin (Gibco 15070-063), 1×NEAA (Gibco 11140-050), 1× GlutaMax (Gibco 35050-061), and 1× sodium pyruvate (Gibco 11360-070). 20 μL of IL-1β was added to a 384-well collagen-coated plate (Corning 354664) and pre-incubated at ambient temperature for 1 hour with 200 nL of compound dispensed using an ECHO 555 liquid handler. Human lung fibroblast MRC5 cells (ATCC CCL-171) were added at a density of 3000 cells/20 μL per well. The cells were prepared by passaging three times in growth medium, EMEM (ATCC 30-2003) with 10% fetal bovine serum (Gibco 16140-071), 1× penicillin/streptomycin (Gibco 15070-063), 1×NEAA (Gibco 11140-050), 1× GlutaMax (Gibco 35050-061), and 1× sodium pyruvate (Gibco 11360-070) in collagen-coated T175 flasks (Greiner 661950) and harvested in seeding medium after 5 minutes of 0.25% trypsin-EDTA (Gibco 25200-056) digestion. The 384-well collagen-coated plate, containing a final volume of 40 μL, was incubated at 37° C., 5% CO2 overnight. 5 μL of the conditioned medium was transferred to a 384-well AlphaLISA plate (PerkinElmer 6005350) for detection of IL-6 using the human AlphaLISA IL-6 kit (PerkinElmer AL223F) as per the manufacturer's protocol. 20 μL of the acceptor bead/biotinylated antibody mix was added to the 384-well AlphaLISA plate and incubated for 1 hour at ambient temperature. The donor bead mix was protected from light and 25 μL was added to the plate and incubated for 30 minutes at ambient temperature. The AlphaLISA plate was read on an EnVision multimode plate reader (Perkin Elmer model 2104) using the AlphaScreen setting (laser exc at 680 nm and emis at 570 nm). Dose response curves and IC50 values were analyzed using a 4-parameter logistic equation in Spotfire software (Tibco, Palo Alto, CA).
For orientation: In Alpha technology, singlet oxygen from a donor bead excites a nearby acceptor bead.
As for `C[C@@H]1C(=O)NCC(=O)N[C@@H](Cc2ccc(-c3ccc(C(=O)O)cc3)cc2)C(=O)N[C@@H](Cn2ncc3ccccc32)C(=O)N[C@@H](CN)C(=O)N[C@H](C)C(=O)N[C@@H](CCc2ccc(O)cc2)C(=O)N[C@@H](Cc2ccc(-c3ccc(C(=O)O)cc3)cc2)C(=O)N[C@@H](Cc2c[nH]c3ccccc23)C(=O)N[C@@H](Cc2ccc(C(=O)O)cc2)C(=O)NCC(=O)N2C[C@H](N)C[C@H]2C(=O)N[C@@H]([C@@H](C)c2cccc3ccccc23)C(=O)N[C@@H](CC(=O)O)C(=O)N1C` [Example 13] (cyclo([Bip(4'-COOH)]W[Phe(4-COOH)]G[Pro(4R-NH2)][1Nal(3S-Me)]D[dNMeA]G[Bip(4'-COOH)][Ala(indazol-1-yl)][Dap][dA][hTyr])), the IC50 (usually the midpoint of a concentration-inhibition curve) came out at 0.031 nM.

Regarding `C[C@@H]1C(=O)NCC(=O)N[C@@H](Cc2ccc(-c3ccc(C(=O)O)cc3)cc2)C(=O)N[C@@H](CN2CCc3ccccc32)C(=O)N[C@@H](CN)C(=O)N[C@H](C)C(=O)N[C@@H](CCc2ccc(O)cc2)C(=O)N[C@@H](Cc2ccc(-c3ccc(C(=O)O)cc3)cc2)C(=O)N[C@@H](Cc2c[nH]c3ccccc23)C(=O)N[C@@H](Cc2ccc(C(=O)O)cc2)C(=O)NCC(=O)N2C[C@H](N)C[C@H]2C(=O)N[C@@H]([C@@H](C)c2cccc3ccccc23)C(=O)N[C@@H](CC(=O)O)C(=O)N1C` [Example 14] (cyclo([Bip(4'-COOH)]W[Phe(4-COOH)]G[Pro(4R-NH2)][1Nal(3S-Me)]D[dNMeA]G[Bip(4'-COOH)][Ala(indolin-1-yl)][Dap][dA][hTyr])), the 50% inhibitory concentration (IC50) came to 0.0297 nM.

For `C[C@@H]1C(=O)NCC(=O)N[C@@H](Cc2ccc(-c3ccc(C(=O)O)cc3)cc2)C(=O)N[C@@H](Cc2cccc3ccccc23)C(=O)N[C@@H](CCN)C(=O)NC(C)(C)C(=O)NCC(=O)N[C@@H](Cc2ccc(-c3ccc(C(=O)O)cc3)cc2)C(=O)N[C@@H](Cc2c[nH]c3ccccc23)C(=O)N[C@@H](Cc2ccc(C(=O)O)cc2)C(=O)NCC(=O)N2C[C@H](N)C[C@H]2C(=O)N[C@@H]([C@@H](C)c2cccc3ccccc23)C(=O)N[C@@H](CC(=O)O)C(=O)N1C` [Example 15] (cyclo([Bip(4'-COOH)]W[Phe(4-COOH)]G[Pro(4R-NH2)][1Nal(3S-Me)]D[dNMeA]G[Bip(4'-COOH)][1Nal][Dab][Aib]G)), the concentration for half-maximal inhibition (IC50) stood at 0.653 nM.

For `C[C@@H]1C(=O)NCC(=O)N[C@@H](Cc2ccc(-c3ccc(C(=O)O)cc3)cc2)C(=O)N[C@@H](Cc2cccc3ccccc23)C(=O)N[C@@H](CCN)C(=O)NC(C)(C)C(=O)N[C@@H](CCc2ccc(O)cc2)C(=O)N[C@@H](Cc2ccc(-c3ccc(C(=O)O)cc3)cc2)C(=O)N[C@@H](Cc2c[nH]c3ccccc23)C(=O)N[C@@H](Cc2ccc(C(=O)O)cc2)C(=O)NCC(=O)N2C[C@H](N)C[C@H]2C(=O)N[C@@H]([C@@H](C)c2cccc3ccccc23)C(=O)N[C@@H](CC(=O)O)C(=O)N1C` [Example 16] (cyclo([Bip(4'-COOH)]W[Phe(4-COOH)]G[Pro(4R-NH2)][1Nal(3S-Me)]D[dNMeA]G[Bip(4'-COOH)][1Nal][Dab][Aib][hTyr])), the half-inhibitory concentration (IC50) worked out at 0.175 nM.

In the case of `C[C@@H]1C(=O)NCC(=O)N[C@@H](Cc2ccc(-c3ccc(C(=O)O)cc3)cc2)C(=O)N[C@@H](Cc2cccc3ccccc23)C(=O)N[C@@H](CN)C(=O)NC(C)(C)C(=O)NCC(=O)N[C@@H](Cc2ccc(-c3ccc(C(=O)O)cc3)cc2)C(=O)N[C@@H](Cc2c[nH]c3ccccc23)C(=O)N[C@@H](Cc2ccc(C(=O)O)cc2)C(=O)NCC(=O)N2C[C@H](N)C[C@H]2C(=O)N[C@@H]([C@@H](C)c2cccc3ccccc23)C(=O)N[C@@H](CC(=O)O)C(=O)N1C` [Example 17] (cyclo([Bip(4'-COOH)]W[Phe(4-COOH)]G[Pro(4R-NH2)][1Nal(3S-Me)]D[dNMeA]G[Bip(4'-COOH)][1Nal][Dap][Aib]G)), the 50% inhibitory concentration (IC50) stood at 0.222 nM.

In the case of `C[C@@H]1C(=O)NCC(=O)N[C@@H](Cc2ccc(-c3ccc(C(=O)O)cc3)cc2)C(=O)N[C@@H](Cc2cccc3ccccc23)C(=O)N[C@@H](CN)C(=O)NC(C)(C)C(=O)N[C@@H](CCc2cncc(C#N)c2)C(=O)N[C@@H](Cc2ccc(-c3ccc(C(=O)O)cc3)cc2)C(=O)N[C@@H](Cc2c[nH]c3ccccc23)C(=O)N[C@@H](Cc2ccc(C(=O)O)cc2)C(=O)NCC(=O)N2C[C@H](N)C[C@H]2C(=O)N[C@@H]([C@@H](C)c2cccc3ccccc23)C(=O)N[C@@H](CC(=O)O)C(=O)N1C` [Example 18] (cyclo([Bip(4'-COOH)]W[Phe(4-COOH)]G[Pro(4R-NH2)][1Nal(3S-Me)]D[dNMeA]G[Bip(4'-COOH)][1Nal][Dap][Aib][h3Pal(5-CN)])), the half-maximal inhibitory concentration (IC50) was 0.0885 nM.

In the case of `CC(C)C[C@@H]1NC(=O)[C@H](Cc2cccc3ccccc23)NC(=O)[C@H](Cc2ccc(-c3ccc(C(=O)O)cc3)cc2)NC(=O)CNC(=O)[C@@H](C)N(C)C(=O)[C@H](CC(=O)O)NC(=O)[C@H]([C@@H](C)c2cccc3ccccc23)NC(=O)[C@@H]2C[C@@H](N)CN2C(=O)CNC(=O)[C@H](Cc2ccc(C(=O)O)cc2)NC(=O)[C@H](Cc2c[nH]c3ccccc23)NC(=O)[C@H](Cc2ccc(-c3ccc(C(=O)O)cc3)cc2)NC(=O)CNC(=O)C(C)(C)NC1=O` [Example 19] (cyclo([Bip(4'-COOH)]W[Phe(4-COOH)]G[Pro(4R-NH2)][1Nal(3S-Me)]D[dNMeA]G[Bip(4'-COOH)][1Nal]L[Aib]G)), the half-maximal inhibitory concentration (IC50) was found to be 0.118 nM.

Consider `C[C@@H]1C(=O)NCC(=O)N[C@@H](Cc2ccc(-c3ccc(C(=O)O)cc3)cc2)C(=O)N[C@@H](Cc2cccc3ccccc23)C(=O)N[C@@H](CCCN)C(=O)NC(C)(C)C(=O)NCC(=O)N[C@@H](Cc2ccc(-c3ccc(C(=O)O)cc3)cc2)C(=O)N[C@@H](Cc2c[nH]c3ccccc23)C(=O)N[C@@H](Cc2ccc(C(=O)O)cc2)C(=O)NCC(=O)N2C[C@H](N)C[C@H]2C(=O)N[C@@H]([C@@H](C)c2cccc3ccccc23)C(=O)N[C@@H](CC(=O)O)C(=O)N1C` [Example 20] (cyclo([Bip(4'-COOH)]W[Phe(4-COOH)]G[Pro(4R-NH2)][1Nal(3S-Me)]D[dNMeA]G[Bip(4'-COOH)][1Nal][Orn][Aib]G)), for which the IC50 turned out to be 0.44 nM.

For `C[C@@H]1C(=O)NCC(=O)N[C@@H](Cc2ccc(-c3ccc(C(=O)O)cc3)cc2)C(=O)N[C@@H](Cc2ccncc2)C(=O)N[C@@H](CN)C(=O)N[C@H](C)C(=O)N[C@@H](CCc2cncc(C#N)c2)C(=O)N[C@@H](Cc2ccc(-c3ccc(C(=O)O)cc3)cc2)C(=O)N[C@@H](Cc2c[nH]c3ccccc23)C(=O)N[C@@H](Cc2ccc(C(=O)O)cc2)C(=O)NCC(=O)N2C[C@H](N)C[C@H]2C(=O)N[C@@H]([C@@H](C)c2cccc3ccccc23)C(=O)N[C@@H](CC(=O)O)C(=O)N1C` [Example 21] (cyclo([Bip(4'-COOH)]W[Phe(4-COOH)]G[Pro(4R-NH2)][1Nal(3S-Me)]D[dNMeA]G[Bip(4'-COOH)][4Pal][Dap][dA][h3Pal(5-CN)])), the IC50 turned out to be 0.0234 nM.

On to `C[C@@H]1C(=O)NCC(=O)N[C@@H](Cc2ccc(-c3ccc(C(=O)O)cc3)cc2)C(=O)N[C@@H](Cc2ccncc2)C(=O)N[C@@H](CN)C(=O)N[C@H](C)C(=O)N[C@@H](CCc2ccc(O)cc2)C(=O)N[C@@H](Cc2ccc(-c3ccc(C(=O)O)cc3)cc2)C(=O)N[C@@H](Cc2c[nH]c3ccccc23)C(=O)N[C@@H](Cc2ccc(C(=O)O)cc2)C(=O)NCC(=O)N2C[C@H](N)C[C@H]2C(=O)N[C@@H]([C@@H](C)c2cccc3ccccc23)C(=O)N[C@@H](CC(=O)O)C(=O)N1C` [Example 22] (cyclo([Bip(4'-COOH)]W[Phe(4-COOH)]G[Pro(4R-NH2)][1Nal(3S-Me)]D[dNMeA]G[Bip(4'-COOH)][4Pal][Dap][dA][hTyr])), for which the half-maximal inhibitory concentration (IC50) is 0.0325 nM.

As to `C[C@@H]1C(=O)NCC(=O)N[C@@H](Cc2ccc(-c3ccc(C(=O)O)cc3)cc2)C(=O)N[C@@H](CC2CCOCC2)C(=O)N[C@@H](CN)C(=O)N[C@H](C)C(=O)N[C@@H](CCc2cncc(C#N)c2)C(=O)N[C@@H](Cc2ccc(-c3ccc(C(=O)O)cc3)cc2)C(=O)N[C@@H](Cc2c[nH]c3ccccc23)C(=O)N[C@@H](Cc2ccc(C(=O)O)cc2)C(=O)NCC(=O)N2C[C@H](N)C[C@H]2C(=O)N[C@@H]([C@@H](C)c2cccc3ccccc23)C(=O)N[C@@H](CC(=O)O)C(=O)N1C` [Example 23] (cyclo([Bip(4'-COOH)]W[Phe(4-COOH)]G[Pro(4R-NH2)][1Nal(3S-Me)]D[dNMeA]G[Bip(4'-COOH)][Ala(4-THP)][Dap][dA][h3Pal(5-CN)])), the IC50 was found to be 0.0112 nM.
